# Assay results from patent EP2970215B1, “PYRROLIDINE DERIVATIVES, PHARMACEUTICAL COMPOSITIONS CONTAINING THEM, AND THEIR USE IN THERAPY” (AbbVie Deutschland GmbH & Co. KG, priority 2013, dated 2014).
# Biological target: T1, human GlyT1c transporter (Homo sapiens, UniProt P48067)
# T1 construct: expressed in transfected cells; host or cells: CHO cells (recombinant; line hGlyT1c_5_CHO is named for the uptake assay)
# T1 sequence (P48067 1-706): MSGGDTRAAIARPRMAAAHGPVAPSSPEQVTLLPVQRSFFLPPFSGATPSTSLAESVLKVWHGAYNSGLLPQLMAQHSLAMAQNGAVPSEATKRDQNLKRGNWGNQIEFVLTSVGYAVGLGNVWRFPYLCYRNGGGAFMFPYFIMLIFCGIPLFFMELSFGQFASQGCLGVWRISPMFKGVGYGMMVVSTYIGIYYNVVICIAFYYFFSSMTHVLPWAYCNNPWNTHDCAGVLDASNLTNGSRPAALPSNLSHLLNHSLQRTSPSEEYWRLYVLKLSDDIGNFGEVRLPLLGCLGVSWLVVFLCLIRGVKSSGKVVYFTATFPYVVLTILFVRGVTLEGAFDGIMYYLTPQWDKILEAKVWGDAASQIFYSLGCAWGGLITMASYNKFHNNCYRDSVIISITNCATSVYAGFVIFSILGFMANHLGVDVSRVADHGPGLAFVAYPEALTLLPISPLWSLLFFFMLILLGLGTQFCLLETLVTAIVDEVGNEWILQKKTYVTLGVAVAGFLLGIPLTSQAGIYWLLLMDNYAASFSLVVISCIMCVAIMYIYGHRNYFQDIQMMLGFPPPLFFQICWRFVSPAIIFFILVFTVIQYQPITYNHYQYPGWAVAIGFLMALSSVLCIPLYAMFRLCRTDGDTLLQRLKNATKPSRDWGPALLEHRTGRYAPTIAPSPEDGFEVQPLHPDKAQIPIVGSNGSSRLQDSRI
# Test: Radioligand binding assay using recombinant CHO cell membranes expressing human GlyT1
# Details: radioligand binding to human GlyT1c transporter-expressing membranes
# Text: 2. Radioligand binding assays using recombinant CHO cell membranes expressing human GlyT1: […]
row,SMILES,Ki [µM]
1,"CC(C)(C)OC(=O)N[C@@H]1CN(S(=O)(=O)c2ccccc2C#N)C[C@H]1c1ccccc1 (relative stereo) [Example 523, tert-butyl {trans-1-[(2-cyanophenyl)sulfonyl]-4-phenylpyrrolidin-3-yl}carbamate]",≤ 10
2,"CC(C)(C)OC(=O)N[C@@H]1CN(S(=O)(=O)c2ccccc2C#N)C[C@H]1c1ccc(F)cc1 (relative stereo) [Example 524, tert-butyl [trans-1-[(2-cyanophenyl)sulfonyl]-4-(4-fluorophenyl)pyrrolidin-3-yl]carbamate]",≤ 10
3,"N#Cc1ccccc1S(=O)(=O)N1C[C@@H](Nc2cc(C(F)(F)F)ccn2)[C@H](c2ccccc2)C1 (relative stereo) [Example 525, 2-{[trans-3-phenyl-4-{[4-(trifluoromethyl)pyridin-2-yl]amino}pyrrolidin-1-yl]sulfonyl}benzonitrile]",≤ 10
4,"NC(=O)c1ccccc1S(=O)(=O)N1C[C@@H](Nc2cc(C(F)(F)F)ccn2)[C@H](c2ccccc2)C1 (relative stereo) [Example 526, 2-{[trans-3-phenyl-4-{[4-(trifluoromethyl)pyridin-2-yl]amino}pyrrolidin-1-yl]sulfonyl}benzamide]",≤ 10
5,"N#Cc1ccccc1S(=O)(=O)N1C[C@@H](N)[C@H](c2ccccc2)C1 (relative stereo) [Example 527, 2-(Trans-3-amino-4-phenylpyrrolidin-1-ylsulfonyl)benzonitrile]",≤ 10
6,"N#Cc1ccccc1S(=O)(=O)N1C[C@@H](Nc2cccc(Cl)c2)[C@H](c2ccccc2)C1 (relative stereo) [Example 528, 2-({Trans-3-[(3-chlorophenyl)amino]-4-phenylpyrrolidin-1-yl}sulfonyl)benzonitrile]",> 10
7,"N#Cc1ccccc1S(=O)(=O)N1C[C@@H](Nc2ccc(F)cc2)[C@H](c2ccccc2)C1 (relative stereo) [Example 529, 2-({Trans-3-[(4-fluorophenyl)amino]-4-phenylpyrrolidin-1-yl}sulfonyl)benzonitrile]",≤ 10
8,"Cn1cnc(S(=O)(=O)N2C[C@@H](Nc3cccc(Cl)c3)[C@H](OCC3CC3)C2)c1 (relative stereo) [Example 530, Trans-N-(3-chlorophenyl)-4-(cyclopropylmethoxy)-1-[(1-methyl-1H-imidazol-4-yl)sulfonyl]pyrrolidin-3-amine]",≤ 1
9,"Cn1cnc(S(=O)(=O)N2C[C@@H](Nc3cc(C(F)(F)F)ncn3)[C@H](C3CCCCC3)C2)c1 (relative stereo) [Example 531, N-{trans-4-cyclohexyl-1-[(1-methyl-1H-imidazol-4-yl)sulfonyl]pyrrolidin-3-yl}-6-(trifluoromethyl)pyrimidin-4-amine]",≤ 0.1
10,"CC(C)OCCCNC[C@@H]1CN(S(=O)(=O)c2cn(C)cn2)C[C@H]1c1ccc(F)cc1 (relative stereo) [Example 591, N-({trans-4-(4-fluorophenyl)-1-[(1-methyl-1H-imidazol-4-yl)sulfonyl]pyrrolidin-3-yl}methyl)-3-(propan-2-yloxy)propan-1-amine]",≤ 10
11,"CCOCCCNC[C@@H]1CN(S(=O)(=O)c2cn(C)cn2)C[C@H]1c1ccc(F)cc1 (relative stereo) [Example 592, 3-ethoxy-N-({trans-4-(4-fluorophenyl)-1-[(1-methyl-1H-imidazol-4-yl)sulfonyl]pyrrolidin-3-yl}methyl)propan-1-amine]",≤ 10
12,"COCCNC[C@@H]1CN(S(=O)(=O)c2cn(C)cn2)C[C@H]1c1ccc(F)cc1 (relative stereo) [Example 593, N-({trans-4-(4-fluorophenyl)-1-[(1-methyl-1H-imidazol-4-yl)sulfonyl]pyrrolidin-3-yl}methyl)-2-methoxyethanamine]",≤ 10
13,"CCCNC[C@@H]1CN(S(=O)(=O)c2cn(C)cn2)C[C@H]1c1ccc(F)cc1 (relative stereo) [Example 594, N-({trans-4-(4-fluorophenyl)-1-[(1-methyl-1H-imidazol-4-yl)sulfonyl]pyrrolidin-3-yl}methyl)propan-1-amine]",≤ 10
14,"CCCCNC[C@@H]1CN(S(=O)(=O)c2cn(C)cn2)C[C@H]1c1ccc(F)cc1 (relative stereo) [Example 595, N-({trans-4-(4-fluorophenyl)-1-[(1-methyl-1H-imidazol-4-yl)sulfonyl]pyrrolidin-3-yl}methyl)butan-1-amine]",≤ 10
15,"COCCCNC[C@@H]1CN(S(=O)(=O)c2cn(C)cn2)C[C@H]1c1ccc(F)cc1 (relative stereo) [Example 597, N-({trans-4-(4-fluorophenyl)-1-[(1-methyl-1H-imidazol-4-yl)sulfonyl]pyrrolidin-3-yl}methyl)-3-methoxypropan-1-amine]",≤ 10
16,"CCCCCCNC(=O)[C@@H]1CN(S(=O)(=O)c2cn(C)cn2)C[C@H]1c1ccc(F)cc1 (relative stereo) [Example 627, Trans-4-(4-fluorophenyl)-N-hexyl-1-[(1-methyl-1H-imidazol-4-yl)sulfonyl]pyrrolidine-3-carboxamide]",≤ 1
17,"Cn1cnc(S(=O)(=O)N2C[C@@H](C(=O)NCc3cc(C(F)(F)F)ccc3Cl)[C@H](c3ccc(F)cc3)C2)c1 (relative stereo) [Example 633, Trans-N-[2-chloro-5-(trifluoromethyl)benzyl]-4-(4-fluorophenyl)-1-[(1-methyl-1H-imidazol-4-yl)sulfonyl]pyrrolidine-3-carboxamide]",≤ 1

# Continued, values first:
row,Ki [µM],SMILES
1,≤ 10,"CCOCCNC[C@@H]1CN(S(=O)(=O)c2cn(C)cn2)C[C@H]1c1ccc(F)cc1 (relative stereo) [Example 598, 2-ethoxy-N-({trans-4-(4-fluorophenyl)-1-[(1-methyl-1H-imidazol-4-yl)sulfonyl]pyrrolidin-3-yl}methyl)ethanamine]"
2,≤ 10,"CC(C)OCCNC[C@@H]1CN(S(=O)(=O)c2cn(C)cn2)C[C@H]1c1ccc(F)cc1 (relative stereo) [Example 599, N-({trans-4-(4-fluorophenyl)-1-[(1-methyl-1H-imidazol-4-yl)sulfonyl]pyrrolidin-3-yl}methyl)-2-(propan-2-yloxy)ethanamine]"
3,≤ 1,"CCCCCNC(=O)[C@@H]1CN(S(=O)(=O)c2cn(C)cn2)C[C@H]1c1ccc(F)cc1 (relative stereo) [Example 626, Trans-4-(4-fluorophenyl)-1-[(1-methyl-1H-imidazol-4-yl)sulfonyl]-N-pentylpyrrolidine-3-carboxamide]"
4,≤ 0.01,"Cn1cnc(S(=O)(=O)N2C[C@@H](C(=O)NCc3cccc(Cl)c3)[C@H](c3ccc(F)cc3)C2)c1 (relative stereo) [Example 628, Trans-N-(3-chlorobenzyl)-4-(4-fluorophenyl)-1-[(1-methyl-1H-imidazol-4-yl)sulfonyl]pyrrolidine-3-carboxamide]"
5,≤ 1,"Cn1cnc(S(=O)(=O)N2C[C@@H](C(=O)NCc3ccc(Cl)cc3)[C@H](c3ccc(F)cc3)C2)c1 (relative stereo) [Example 629, Trans-N-(4-chlorobenzyl)-4-(4-fluorophenyl)-1-[(1-methyl-1H-imidazol-4-yl)sulfonyl]pyrrolidine-3-carboxamide]"
6,≤ 0.1,"Cn1cnc(S(=O)(=O)N2C[C@@H](C(=O)NCc3ccc(F)cc3)[C@H](c3ccc(F)cc3)C2)c1 (relative stereo) [Example 630, Trans-N-(4-fluorobenzyl)-4-(4-fluorophenyl)-1-[(1-methyl-1H-imidazol-4-yl)sulfonyl]pyrrolidine-3-carboxamide]"
7,≤ 0.01,"Cn1cnc(S(=O)(=O)N2C[C@@H](C(=O)NCc3ccc(F)c(F)c3)[C@H](c3ccc(F)cc3)C2)c1 (relative stereo) [Example 631, Trans-N-(3,4-difluorobenzyl)-4-(4-fluorophenyl)-1-[(1-methyl-1H-imidazol-4-yl)sulfonyl]pyrrolidine-3-carboxamide]"
8,≤ 1,"Cn1cnc(S(=O)(=O)N2C[C@@H](C(=O)NCc3cccc(C(F)(F)F)c3)[C@H](c3ccc(F)cc3)C2)c1 (relative stereo) [Example 632, Trans-4-(4-fluorophenyl)-1-[(1-methyl-1H-imidazol-4-yl)sulfonyl]-N-[3-(trifluoromethyl)benzyl]pyrrolidine-3-carboxamide]"
9,≤ 10,"Cn1cnc(S(=O)(=O)N2C[C@@H](C(=O)NCc3ccccn3)[C@H](c3ccc(F)cc3)C2)c1 (relative stereo) [Example 634, Trans-4-(4-fluorophenyl)-1-[(1-methyl-1H-imidazol-4-yl)sulfonyl] -N-(pyridin-2-ylmethyl)pyrrolidine-3-carboxamide]"
10,≤ 1,"Cn1cnc(S(=O)(=O)N2C[C@@H](C(=O)NCc3cc(C(F)(F)F)ccn3)[C@H](c3ccc(F)cc3)C2)c1 (relative stereo) [Example 635, Trans-4-(4-fluorophenyl)-1-[(1-methyl-1H-imidazol-4-yl)sulfonyl]-N-{[4-(trifluoromethyl)pyridin-2-yl]methyl}pyrrolidine-3-carboxamide]"
